“Also recorded” adds a separate entry of the source.
Legend:
[1] = biological target: T1, BTK:NLuc fusion (Homo sapiens, UniProt Q06187); experiment: Capture efficiency of BTK:NLuc fusion onto HALOTAG coated magnetic beads; format: binding; conditions: cell lysate, 1 μM conjugate, 2 hour
T1 construct: expressed in transfected cells
Procedure: To interrogate capture efficiency of an interacting cellular target, a known target of Ibrutinib, BTK, was genetically fused to NANOLUC (NLuc) luciferase reporter (Promega Corporation). Since Ibrutinib is a covalent inhibitor of BKT, a TEV recognition site was incorporated between BTK and NLuc to allow proteolytic release of NLuc from the beads. Following a 2 hour treatment of cell lysate (from cells expressing the BTK:NLuc fusion) with 1 μM Ibrutinib chloroalkane conjugates (final concentration), the Ibrutinib chloroalkane conjugates, and their interacting BTK:NLuc target, were captured onto HALOTAG coated magnetic beads (Promega Corporation). Capture efficiency was determined as the percent of lost in bioluminescence in the unbound fractions relative to the untreated cell lysate.

[2] = test system: HALOTAG protein; conditions: 1 μM conjugate, up to 60 min, lysate of cells expressing HALOTAG fusion
Procedure: The 4 BIRB* conjugates were compared for binding kinetics to a HALOTAG protein in a cell lysate or inside live cells. Binding kinetics to HALOTAG in lysate was measured by adding the BIRB*-chloroalkane conjugates to a lysate prepared from cells expressing a HALOTAG fusion protein at a final concentration of 1 μM. After 0-60 minutes incubation, a fraction of each reaction taken at different time points (each containing a different BIRB* conjugate) was removed, HALGOTAG TMR-fluorescent ligand (Promega Corporation) was added to a final concentration of 1 μM and allowed to bind to the HALOTAG protein (which remained unbound). The time point fractions were resolved on SDS-PAGE and scanned on a Typhoon 9400 fluorescent imager (GE Healthcare). Bands were quantitated using IMAGEQUANT (GE Healthcare), and binding kinetics were determined as the percent binding with time relative to time zero when no chloroalkylated compound was added.
Binding kinetics to HALOTAG in lysate (FIG. 23A) was measured by treating a lysate prepared from cells, expressing a HALOTAG fusion protein, with the Ibrutinib chloroalkane conjugates at a final concentration of 1 μM for up 60 minutes. After a specified incubation time, an aliquot was removed and treated with HALOTAG TMR-fluorescent ligand (Promega Corporation) at a final concentration of 1 μM to label the remaining unbound HALOTAG fusion protein. The aliquots were resolved on SDS-PAGE and scanned on a Typhoon 9400 fluorescent imager (GE Healthcare). Bands were quantitated using IMAGEQUANT (GE Healthcare), and binding kinetics was determined as the percent binding over time relative to time zero when no chloroalkane-tagged compound added.
Binding kinetics to HALOTAG in lysate (FIG. 31A) were measured by treating a lysate prepared from cells expressing a HALOTAG fusion protein with the BIRB796 chloroalkane conjugates at a final concentration of 1 μM for up to 60 minutes. After a specified incubation time, an aliquot was removed and treated with HALOTAG TMR-fluorescent ligand (Promega Corporation) at a final concentration of 1 μM to label the remaining unbound HALOTAG fusion protein. The aliquots were resolved on SDS-PAGE and scanned on a Typhoon 9400 fluorescent imager (GE Healthcare). Bands were quantitated using IMAGEQUANT (GE Healthcare), and binding kinetics was determined as the percent binding over time relative to time zero where no chloroalkane-tagged compound was added.

[3] = test system: TNFα secretion in LPS stimulated THP-1 cells; experiment: Inhibition of TNFα secretion in LPS stimulated THP-1 cells (ELISA); format: cell-based, human; conditions: 2 h compound, LPS 250 ng/ml 24 h
Procedure: Bioactivity was measured through inhibition of TNFα secretion in LPS stimulated THP-1 cells (FIGS. 8A-8C). THP-1 cells were plated into wells of 96-well plates at 100,000 cells/well, treated with serial dilutions of BIRB796 conjugates for 2 hours, and then stimulated for 24 hours with LPS (Sigma) at final concentration of 250 ng/ml. The supernatant was analyzed for human TNFα secretion by ELISA (R&D Systems). […] Thus, it imposes minimal impact on the chloroalkane features.
Inhibition of mitogen-activated protein kinases (MAPK) by BIRB796 reduces production of proinflammatory cytokines such as TNFα. Influence of the linkers on BIRB796 potency was tested by comparing the BIRB796 conjugates for inhibition of TNFα secretion from LPS-stimulated THP-1 cells (FIG. 32). THP-1 cells were plated in 96-well plates at 100,000 cells/well, treated with serial dilutions of BIRB796 (Cayman Chemical) and BIRB796-chloroalkane conjugates for 2 h, and then stimulated with LPS (Sigma) at final concentration of 250 ng mL−1 for 24 h. Supernatants were analyzed for human TNFα secretion by ELISA (R&D systems). Results indicates inverse correlation between the length of the cleavable chloroalkane linker and its influence on BIRB796 potency.

[4] = biological target: T1, BTK:NLuc fusion; experiment: Release of captured BTK:NLuc from HALOTAG beads by TEV or palladium-catalyzed cleavage, western; conditions: anti-NLuc antibody
Procedure: To interrogate the efficiency of palladium-catalyzed cleavage of these linkers, the release of BTK:NLuc fusion covalently captured onto the HALOTAG beads was determined by two methods: i) TEV proteolytic cleavage and ii) palladium-catalyzed cleavage (FIG.
24B). TEV proteolytic cleavage of the fusion would lead to the release of NLuc while palladium catalyzed cleavage of the allyl carbamate group within the chloroalkane linker would result with the release of BTK:NLuc.

[5] = test system: HALOTAG protein; conditions: 10 μM conjugate, up to 90-120 min, live cells expressing HALOTAG
Procedure: Binding kinetics to HALOTAG inside cells was measured by treating live cells expressing a HALOTAG protein with the BIRB* chloroalkane conjugates at a final concentration of 10 μM. After 0-120 minutes incubation time points, the medium was replaced with medium containing 5 μM HALOTAG TMR-fluorescent ligand, and the cells were incubated for additional 15 minutes allowing the TMR-fluorescent ligand to bind to the HALOTAG protein (which remained unbound). After the media was removed, the cells were lysed with a detergent lysis buffer, and the time points were analyzed as described above.
Both conjugates were compared for binding kinetics to HALOTAG inside live cells and for bioactivity. Binding kinetics to HALOTAG inside cells was measured by treating live cells expressing a HALOTAG protein with the BIRB796 chloroalkane conjugates at a final concentration of 10 μM. […] Bands were quantitated, and the binding kinetics were determined as the percent binding with time relative to time zero when no chloroalkylated compound was added.
Binding kinetics to HALOTAG inside cells (FIG. 23B) was measured by treating live cells, expressing a HALOTAG fusion protein, with the Ibrutinib chloroalkane conjugates at a final concentration of 10 μM for up to 90 minutes. […] Cells were then lysed with a detergent lysis buffer, and the samples at the various time points were analyzed as described above. […]

[6] = test system: STATS reporter expression; experiment: In-cell inhibition of STATS reporter expression by ponatinib conjugates; format: cell-based; conditions: cellular assay
Excerpt: (§1) CA-T4E contains 4 carbamate groups, one of them essential for rapid binding kinetics to HALOTAG. Two additional linkers were generated, one where the three other carbamates were replaced with amides, and the other where the two allyl carbamate groups were replaced with allyl ether linkages. […] The linkers were compared for their influence on binding to HALOTAG and ABL1 in biochemical and cellular assays.

[7] = biological target: purified ABL1 (Homo sapiens, UniProt P00519); experiment: Inhibition of purified ABL1 by ponatinib conjugates; format: biochemical
Sequence of purified ABL1 (P00519 whole entry, species assumed): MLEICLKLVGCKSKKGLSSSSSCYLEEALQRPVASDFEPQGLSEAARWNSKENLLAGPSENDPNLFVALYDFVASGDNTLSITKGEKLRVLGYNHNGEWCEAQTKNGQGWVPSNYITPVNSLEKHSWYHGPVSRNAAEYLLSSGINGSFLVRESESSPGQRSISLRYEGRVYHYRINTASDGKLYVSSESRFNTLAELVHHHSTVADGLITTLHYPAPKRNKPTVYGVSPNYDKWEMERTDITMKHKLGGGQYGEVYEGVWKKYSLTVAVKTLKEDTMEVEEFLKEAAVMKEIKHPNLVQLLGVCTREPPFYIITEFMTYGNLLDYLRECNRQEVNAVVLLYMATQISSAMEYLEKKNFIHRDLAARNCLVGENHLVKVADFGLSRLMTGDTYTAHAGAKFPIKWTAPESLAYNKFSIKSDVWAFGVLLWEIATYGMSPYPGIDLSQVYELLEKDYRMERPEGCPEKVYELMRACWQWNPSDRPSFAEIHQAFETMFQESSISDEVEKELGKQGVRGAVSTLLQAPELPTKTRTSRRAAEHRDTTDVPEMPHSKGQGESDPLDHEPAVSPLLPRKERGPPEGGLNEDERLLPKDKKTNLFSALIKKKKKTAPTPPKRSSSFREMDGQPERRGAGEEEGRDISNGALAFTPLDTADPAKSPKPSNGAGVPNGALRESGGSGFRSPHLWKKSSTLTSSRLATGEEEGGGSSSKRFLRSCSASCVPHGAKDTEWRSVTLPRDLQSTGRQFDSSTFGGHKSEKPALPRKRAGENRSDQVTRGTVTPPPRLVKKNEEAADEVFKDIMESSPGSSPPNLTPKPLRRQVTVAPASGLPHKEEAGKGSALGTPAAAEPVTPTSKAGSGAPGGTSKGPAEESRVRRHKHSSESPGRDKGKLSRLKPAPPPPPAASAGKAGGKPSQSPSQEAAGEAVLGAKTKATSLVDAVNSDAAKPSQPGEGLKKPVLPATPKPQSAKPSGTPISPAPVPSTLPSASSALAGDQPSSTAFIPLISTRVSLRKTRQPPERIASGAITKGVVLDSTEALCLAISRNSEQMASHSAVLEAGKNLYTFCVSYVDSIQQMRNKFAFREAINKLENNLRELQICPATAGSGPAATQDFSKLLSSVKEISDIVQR
Excerpt: as §1, with “Two” for “CA-T4E contains 4 carbamate groups, one of them essential for rapid binding kinetics to HALOTAG. Two”

T1 sequence (Q06187 whole entry, species assumed, the tested form may be a part): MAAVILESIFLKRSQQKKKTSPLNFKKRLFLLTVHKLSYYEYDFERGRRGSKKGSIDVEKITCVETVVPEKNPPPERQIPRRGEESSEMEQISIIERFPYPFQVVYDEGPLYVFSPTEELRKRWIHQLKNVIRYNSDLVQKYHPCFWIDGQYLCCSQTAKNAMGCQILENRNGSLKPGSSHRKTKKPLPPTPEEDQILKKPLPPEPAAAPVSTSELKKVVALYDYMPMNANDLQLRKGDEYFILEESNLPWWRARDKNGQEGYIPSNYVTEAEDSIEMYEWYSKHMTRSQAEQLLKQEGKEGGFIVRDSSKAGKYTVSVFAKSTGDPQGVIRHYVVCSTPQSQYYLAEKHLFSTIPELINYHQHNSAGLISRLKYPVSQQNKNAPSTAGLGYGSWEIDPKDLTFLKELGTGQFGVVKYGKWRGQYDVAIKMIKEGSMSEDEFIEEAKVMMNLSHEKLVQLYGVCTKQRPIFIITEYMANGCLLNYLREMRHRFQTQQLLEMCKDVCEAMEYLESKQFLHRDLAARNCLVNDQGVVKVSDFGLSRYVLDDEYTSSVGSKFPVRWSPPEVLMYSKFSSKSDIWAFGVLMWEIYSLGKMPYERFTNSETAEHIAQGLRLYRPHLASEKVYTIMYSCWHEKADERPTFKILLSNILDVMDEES

| Structure (SMILES) | capture efficiency of BTK:NLuc [1] | binding kinetics to HALOTAG in lysate [2] | further results |
| --- | --- | --- | --- |
| Nc1ncnc2c1c(-c1ccc(Oc3ccccc3)cc1)nn2[C@@H]1CCCN(C(=O)/C=C/CNC(=O)OC/C=C/COC(=O)NCCOCCOCCOC(=O)NCCOCCOCCCCCCCl)C1 [PBI-6029] | did not interfere with capture efficiency |  |  |
| CC(C)(C)c1cc(NC(=O)Nc2ccc(OCCN3CCOCC3)c3ccccc23)n(-c2cccc(CNC(=O)OC/C=C/COC(=O)NCCOCCOCCOC(=O)NCCOCCOCCCCCCCl)c2)n1 [CA-T3E] |  | faster binding to HALOTAG than respective linkers with a cis-double bond |  |
| CC(C)(C)c1cc(NC(=O)Nc2ccc(OCCN3CCOCC3)c3ccccc23)n(-c2cccc(CNC(=O)OC/C=C\COC(=O)NCCOCCOCCCCCCCl)c2)n1 [CA-T0] |  | lower binding kinetics to HALOTAG |  |
| Nc1ncnc2c1c(-c1ccc(Oc3ccccc3)cc1)nn2[C@@H]1CCCN(C(=O)/C=C/CNC(=O)OC/C=C\COCCOC(=O)NCCOCCOCCCCCCCl)C1 [PBI-6025] | reduced capture efficiency relative to PBI-6040 |  |  |
| CC(C)(C)c1cc(NC(=O)Nc2ccc(OCCN3CCOCC3)c3ccccc23)n(-c2cccc(CNC(=O)OC/C=C/COCCOC(=O)NCCOCCOCCCCCCCl)c2)n1 [CA-T2E] |  | faster binding to HALOTAG than respective linkers with a cis-double bond |  |
| Nc1ncnc2c1c(-c1ccc(Oc3ccccc3)cc1)nn2[C@@H]1CCCN(C(=O)/C=C/CNC(=O)OC/C=C\COC(=O)NCCOCCOCCOC(=O)NCCOCCOCCCCCCCl)C1 [PBI-6030] | did not interfere with capture efficiency |  |  |
| CC(C)(C)c1cc(NC(=O)Nc2ccc(OCCN3CCOCC3)c3ccccc23)n(-c2cccc(CNC(=O)OCCOCCOCCNC(=O)OC/C=C\COC(=O)NCCOCCOCCOC(=O)NCCOCCOCCCCCCCl)c2)n1 [CA-T4Z] |  |  | inhibition of TNFα secretion (potency) [3]: potency similar to non-cleavable linker CA-T1 |
| CC(C)(C)c1cc(NC(=O)Nc2ccc(OCCN3CCOCC3)c3ccccc23)n(-c2cccc(CNC(=O)OCCOCCOCCNC(=O)OC/C=C/COC(=O)NCCOCCOCCOC(=O)NCCOCCOCCCCCCCl)c2)n1 [BIRB796-CA-T4E] |  | faster binding to HALOTAG than respective linkers with a cis-double bond; also recorded: most similar to the non-cleavable linker CA-T1 | inhibition of TNFα secretion (potency) [3]: potency similar to non-cleavable linker CA-T1 |
| Nc1ncnc2c1c(-c1ccc(Oc3ccccc3)cc1)nn2[C@@H]1CCCN(C(=O)/C=C/CNC(=O)OC/C=C/COCCOC(=O)NCCOCCOCCCCCCCl)C1 [PBI-6027] | reduced capture efficiency relative to PBI-6040 |  |  |
| Nc1ncnc2c1c(-c1ccc(Oc3ccccc3)cc1)nn2[C@@H]1CCCN(C(=O)/C=C/CNC(=O)OC/C=C\COC(=O)NCCOCCOCCCCCCCl)C1 [PBI-6041] | reduced capture efficiency relative to PBI-6040 | lower binding kinetics to HALOTAG | release of NLuc by TEV proteolytic cleavage [4]: lower release |
| Cc1ccc(C(=O)Nc2ccc(CN3CCN(CCCNC(=O)CCOCCOCCC(=O)NC/C=C/CNC(=O)CCOCCOCCOC(=O)NCCOCCOCCCCCCCl)CC3)c(C(F)(F)F)c2)cc1C#Cc1cnc2cccnn12 [ponatinib-tri-amide] |  |  | binding kinetics to HALOTAG inside live cells (cellular permeability) [5]: reduced binding kinetics to intracellular HALOTAG; decrease of ponatinib potency relative to CA-T4E and all PEG linkers [6]: 20 fold; inhibition of purified ABL1 [7]: comparable inhibition of purified ABL1 |
